According to patent US20260248879A1, “METHODS OF USING A GCG/GLP1 CO-AGONIST FOR THERAPY” (ELI LILLY AND COMPANY, priority 2022, published 2026):
Marks after values point to notes of the source that are not given here.

Experiments:
Assay type in all cases: in vivo, human
patients with T2DM [1] = assay: Example 1 study: gastric emptying (acetaminophen PK)
Source text: Acetaminophen is a well-established marker for the rate and extent of gastric emptying. It is rapidly absorbed from the duodenum upon release from the stomach. A delay in gastric emptying is reflected in the alterations to the concentration-time profile of acetaminophen, specifically, decreasing its Cmax and increasing time of maximum observed drug concentration (tmax) without altering the extent (total drug amount) absorbed. An oral solution dose of approximately 1 g acetaminophen is considered to be sufficient for bioanalytical detection and is administered as indicated below in respect of Cohorts 1 and 2. […] Concentrations of acetaminophen are assayed using a validated LC/MS method. Bioanalytical samples collected to measure acetaminophen concentrations are retained for a maximum of 2 years following last patient visit for the study.
In respect of Cohort 1, gastric emptying is assessed at baseline and Days 2 and 79.
In respect of Cohort 2, gastric emptying is assessed at baseline and Days 2 and 107.
The PK parameters of acetaminophen were compared between treatment groups to determine the rate and extent of gastric emptying. Prior to dosing with Compound 1, the PK profiles of acetaminophen on Day −1 were similar between the treatment groups. Within treatment groups, the Cmax of acetaminophen decreased from Day −1 during 12 weeks of multiple dosing with Compound 1. The Cmax of acetaminophen was lowest on Day 2 in both treatment groups. However, the change from baseline Cmax of acetaminophen increased at Day 107.

individuals with obesity = assay: Example 2 study: adverse events
Source text: This study is designed to evaluate the safety, tolerability, PD and PK of dose to higher doses of Compound 1 in individuals with obesity. The Multiple Ascending Dose (MAD) study is a randomized, investigator- and participant-blind, placebo-controlled, multiple-ascending dose, single- or multi-site study conducted in individuals with obesity (i.e., females or males aged 18-70 years, inclusive, a BMI in the range of 27 kg/m^2 to 50 kg/m^2). Participants should have stable body weight for at least 3 months prior to the initiation of the study.
Dose of Compound 1 is assessed with weekly dosing over 20 weeks in 2 cohorts. Each cohort comprises 12 patients-nine patients are administered Compound 1 and three patients are administered placebo.
The dose for Cohort 1 is as follows: • 1.5 mg Compound 1 for 2 weeks; • 3.0 mg Compound 1 for 2 weeks; • 6.0 mg Compound 1 for 4 weeks; • 8.0 mg Compound 1 for 4 weeks; • 12.0 mg Compound 1 for 4 weeks; and • 16.0 mg Compound 1 for 4 weeks.
The dose for Cohort 2 is as follows: • 2.0 mg Compound 1 for 3 weeks; • 4.0 mg Compound 1 for 3 weeks; • 6.0 mg Compound 1 for 3 weeks; • 8.0 mg Compound 1 for 3 weeks; • 10.0 mg Compound 1 for 2 weeks; • 13.0 mg Compound 1 for 2 weeks, and • 16.0 mg Compound 1 for 4 weeks.
Safety parameters assessed during the study include: AEs (with special interest to GI AEs such as nausea, vomiting, and diarrhea), laboratory parameters, physical examinations/medical assessments, vital signs and ECGs, BW, injection site reactions, hypersensitivity reactions, and glucose monitoring (with special attention to hypoglycemia).

patients with T2DM [2] = assay: Example 1 study: HbA1c
Source text: This study is a Phase 1, single-site, patient- and investigator-blinded, placebo controlled, randomized, non-crossover, multiple-ascending dose study with titration in each cohort in patients with T2DM to investigate the safety, tolerability, PK, and PD of the GLP-1/glucagon co-agonist peptide of SEQ ID NO:1 (Compound 1) administered as multiple SC injections QW for 12 weeks in Cohort 1 and 16 weeks in Cohort 2.
The first dosing regimen (also referred to as Cohort 1) is 12 weeks in duration and requires dose increments of 1.5 mg starting from 1.5 mg: • 1.5 mg QW Compound 1 for 4 weeks; • 3.0 mg QW Compound 1 for 4 weeks; and • 4.5 mg QW Compound 1 for 4 weeks.
The second dosing regimen (also referred to as Cohort 2) is 16 weeks in duration and requires dose increments of 2 mg starting from 2 mg: • 2 mg QW Compound 1 for 3 weeks; • 4 mg QW Compound 1 for 3 weeks; • 6 mg QW Compound 1 for 3 weeks; • 8 mg QW Compound 1 for 3 weeks; and • 10 mg QW Compound 1 for 4 weeks.
In respect of Cohort 1, HbA1c levels are determined at baseline and Days 1, 29, 57 and 78. In respect of Cohort 2, HbA1c is measured at baseline and Days 1, 22, 43, 64, 85 and 106.

patients with T2DM [3] = assay: Example 1 study: gastric emptying (acetaminophen PK); remark: listed apart in the source

Compound: CC(C)C[C@H](NC(=O)[C@H](CC(C)C)NC(=O)[C@H](Cc1c[nH]c2ccccc12)NC(=O)[C@H](CCC(=O)O)NC(=O)[C@@H](NC(=O)[C@H](Cc1ccccc1)NC(=O)[C@H](CCC(=O)O)NC(=O)[C@H](CCCCNC(=O)COCCOCCNC(=O)COCCOCCNC(=O)CC[C@H](NC(=O)CCCCCCCCCCCCCCCCCCC(=O)O)C(=O)O)NC(=O)[C@H](C)NC(=O)[C@H](CCCCN)NC(=O)[C@H](CCCCN)NC(=O)[C@H](CCC(=O)O)NC(=O)[C@H](CC(=O)O)NC(=O)[C@H](CC(C)C)NC(=O)[C@H](Cc1ccc(O)cc1)NC(=O)[C@H](CCCCN)NC(=O)[C@H](CO)NC(=O)[C@H](Cc1ccc(O)cc1)NC(=O)[C@H](CC(=O)O)NC(=O)[C@H](CO)NC(=O)[C@@H](NC(=O)[C@H](Cc1ccccc1)NC(=O)[C@@H](NC(=O)CNC(=O)[C@H](CCC(N)=O)NC(=O)C(C)(C)NC(=O)[C@@H](N)Cc1c[nH]cn1)[C@@H](C)O)[C@@H](C)O)C(C)C)C(=O)N[C@@H](CCC(=O)O)C(=O)NCC(=O)NCC(=O)N1CCC[C@H]1C(=O)N[C@@H](CO)C(=O)N[C@@H](CO)C(=O)NCC(N)=O [Compound 1]
- acetaminophen Cmax, Change From Baseline (Est % change) (patients with T2DM [1]; Cohort 1, Day 2): (0.83) %
- acetaminophen tmax, Change From Baseline (Est % change) (patients with T2DM [1]; Cohort 1, Day 2): (1.06) %
- acetaminophen tmax (patients with T2DM [1]; Cohort 1, Day 2, Day −1 2.671): 1.963 h
- acetaminophen Cmax, Change From Baseline (Est % change) (patients with T2DM [1]; Cohort 1, Day 79): (0.9) %
- acetaminophen tmax (patients with T2DM [1]; Cohort 1, Day 79): 1.478 h
- acetaminophen tmax, Change From Baseline (Est % change) (patients with T2DM [1]; Cohort 1, Day 79): (0.8) %
- acetaminophen Cmax, Change From Baseline (Est % change) (patients with T2DM [1]; Cohort 2, Day 2): (0.79) %
- acetaminophen tmax, Change From Baseline (Est % change) (patients with T2DM [1]; Cohort 2, Day 2): (0.89) %
- acetaminophen tmax, Change From Baseline, Mean (patients with T2DM [1]; Cohort 2, Day 2): 0.187 h
- acetaminophen tmax (patients with T2DM [1]; Cohort 2, Day 2, Day −1 1.214): 1.423 h
- acetaminophen Cmax, Change From Baseline (Est % change) (patients with T2DM [1]; Cohort 2, Day 107): (1.18) %
- acetaminophen tmax (patients with T2DM [1]; Cohort 2, Day 107): 0.909 h
- acetaminophen tmax, Change From Baseline (Est % change) (patients with T2DM [1]; Cohort 2, Day 107): (0.89) %
- acetaminophen tmax, Change From Baseline, Mean (patients with T2DM [1]; Cohort 2, Day 107): 0.75 h
- deaths (individuals with obesity; Example 2 study): No deaths occurred
- most common treatment-emergent adverse events (individuals with obesity; in vivo): gastrointestinal in nature (nausea, vomiting, diarrhea)
- serious adverse events (individuals with obesity; in vivo): No serious adverse events were observed
- Change from Baseline in HbA1c (patients with T2DM [2]; Cohort 1 (1.5-4.5 mg QW), Day 29, baseline 8.52): −0.70* %
- Change from Baseline in HbA1c (patients with T2DM [2]; Cohort 1, Day 57, baseline 8.52): −1.45* %
- Change from Baseline in HbA1c (patients with T2DM [2]; Cohort 1, Day 78, baseline 8.52): −1.80* %
- Change from Baseline in HbA1c (patients with T2DM [2]; Cohort 1, Day 106 (28 days after last dose), baseline 8.52): −2.03* %
- HbA1c decrease from baseline compared to placebo (patients with T2DM [2]; Cohort 1 and Cohort 2, Day 57 until Day 134): Statistically significant decreases
- Change from Baseline in HbA1c (patients with T2DM [2]; Cohort 2 (2-10 mg QW), Day 43, baseline 8.08): −0.83* %
- Change from Baseline in HbA1c (patients with T2DM [2]; Cohort 2, Day 64, baseline 8.08): −1.35* %
- Change from Baseline in HbA1c (patients with T2DM [2]; Cohort 2, Day 85, baseline 8.08): −1.50* %
- Change from Baseline in HbA1c (patients with T2DM [2]; Cohort 2, Day 106, baseline 8.08): −1.67* %
- acetaminophen Cmax, Change From Baseline, Mean (patients with T2DM [3]; Cohort 1, Day 107): 1487.25
- acetaminophen tmax (patients with T2DM [3]; Cohort 1, Day 107): 1.456 h
- acetaminophen tmax (patients with T2DM [3]; Cohort 2, Day 79): 3.302 h
- acetaminophen tmax, Change From Baseline, Mean (patients with T2DM [3]; Cohort 2, Day 79): 0.333 h
